Assay results published in US20100209404A1, “ENHANCED METHOD FOR PRODUCING STEM-LIKE CELLS FROM SOMATIC CELLS” (UNIVERSITY OF DAYTON, priority 2009, published 2010).

What was measured:
[1] = tested on: fibroblast growth factor receptor 3 (FGFR3); settings: thapsigargin 1 μg/ml in SR-containing medium; cited from earlier work
[2] = tested on: skin fibroblast cells; settings: thapsigargin 1 μg/ml in SR-containing medium; cited from earlier work
[3] = tested on: skin fibroblasts; settings: SR reconstituted while eliminating individual supplements; cited from earlier work
[4] = tested on: Mouse embryonic skin fibroblast (MEF) cells; assay: Conversion (reprogramming) of MEF cells into stem-like cells in defined medium; assay type: cell-based
Procedure: MEF medium: DMEM (Invitrogen 11965-092) supplemented with 10% FBS (16000-044), 100 U/mL penicillin streptomycin (15140-122). Defined medium (Modified/Supplemented SR medium): 400 ml DMEM/F12 (Invitrogen 11330-032), 5 ml non-Essential Amino Acids (Invitrogen 11140-050), 2.5 ml L-Glutamine (Invitrogen 25030-018), 0.1 mM β-mercaptoethanol (Sigma 7522, add 3.5 μl) and 100 ml Knockout Serum Replacer (Invitrogen 10828-028). 4 ng/mL bFGF (13256-029), 1000/ml unit of ESGRO™ (Lif) (Chemicon Cat #ESG1107). For each experiment, the necessary amount of defined medium was aliquoted, and then freshly prepared bFGF and Lif were added to the medium each time just in advance of use. (Lif was used as a component of such medium for mouse cell culture only.) FGF stock was made by adding 1 ml of DMEM/F12 to a vial of 10 μg of FGF, with the 10 μg of FGF dissolved in the DMEM/F12 and then aliquoted into five vials. Stock vials were then stored at −20° C. For each 30 ml of defined medium, 12 μl of the stock bFGF was added. Arachidonic acid (AA) stock was made by dissolving 10 mg of AA (from porcine liver A3555-10M Sigma) in 1 ml of DMSO. Dissolved AA was then aliquoted into five vials, and then store at −20° C. ([…]). Before use in defined medium, the 10 mg/ml AA was diluted with 1×PBS at a 1:5 ratio. […]

[5] = tested on: ES-like cells; settings: bFGF (4 ng/ml) and Lif added together to SR-containing medium; cited from earlier work

## C/C=C(/C)C(=O)O[C@H]1C(C)=C2[C@H]([C@@H]1OC(=O)CCCCCCC)[C@@](C)(OC(C)=O)C[C@H](OC(=O)CCC)[C@@]1(O)[C@H]2OC(=O)[C@@]1(C)O [Thapsigargin]
[1]
  up-regulated expression of FGFR3: prevented
[2]
  conversion of skin fibroblast cells into stem cell-like cells: prevented

## CCCCC/C=C\C/C=C\C/C=C\C/C=C\CCCC(=O)O [arachidonic acid, all-cis 5,8,11,14-eicosatetraenoic acid]
[3]
  role of SR component in reprogramming somatic cells (e.g., fibroblasts) into stem-like cells: critical components
[4]; arachidonic acid 2 mg/L added to defined medium, in isolation or together with pluronic F68
  conversion efficiency of somatic cells: increase the conversion efficiency

## bFGF: basic fibroblast growth factor
[4]; freshly prepared, bFGF 4 ng/mL and Lif 1000/ml unit added to defined medium immediately prior to every conversion or passage
  efficient reprogramming of MEF cells to stem-like cells: important to ensuring efficient reprogramming
[5]
  differentiation of the ES-like cells: preventing differentiation
  division of the ES-like cells: promote division

## lipid-rich BSA: lipid-rich BSA (AlbuMax I, Invitrogen), component of serum replacement
[3]
  role of SR component in reprogramming somatic cells (e.g., fibroblasts) into stem-like cells: critical components
